“And” between values parts separate entries of the source, which are not always exact repeats. Equal entries are not always repeated.
What follows are compounds tested against Genome polyprotein (dengue virus type 2, UniProt P29990).
Format: functional, Thailand/16681/1984

Sequence of Genome polyprotein (P29990 1346-1475 limits assumed): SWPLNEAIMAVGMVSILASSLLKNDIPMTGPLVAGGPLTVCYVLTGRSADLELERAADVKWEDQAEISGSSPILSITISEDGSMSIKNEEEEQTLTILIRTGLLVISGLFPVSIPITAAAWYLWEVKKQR
Sequence of Genome polyprotein (P29990 1476-2093 limits assumed): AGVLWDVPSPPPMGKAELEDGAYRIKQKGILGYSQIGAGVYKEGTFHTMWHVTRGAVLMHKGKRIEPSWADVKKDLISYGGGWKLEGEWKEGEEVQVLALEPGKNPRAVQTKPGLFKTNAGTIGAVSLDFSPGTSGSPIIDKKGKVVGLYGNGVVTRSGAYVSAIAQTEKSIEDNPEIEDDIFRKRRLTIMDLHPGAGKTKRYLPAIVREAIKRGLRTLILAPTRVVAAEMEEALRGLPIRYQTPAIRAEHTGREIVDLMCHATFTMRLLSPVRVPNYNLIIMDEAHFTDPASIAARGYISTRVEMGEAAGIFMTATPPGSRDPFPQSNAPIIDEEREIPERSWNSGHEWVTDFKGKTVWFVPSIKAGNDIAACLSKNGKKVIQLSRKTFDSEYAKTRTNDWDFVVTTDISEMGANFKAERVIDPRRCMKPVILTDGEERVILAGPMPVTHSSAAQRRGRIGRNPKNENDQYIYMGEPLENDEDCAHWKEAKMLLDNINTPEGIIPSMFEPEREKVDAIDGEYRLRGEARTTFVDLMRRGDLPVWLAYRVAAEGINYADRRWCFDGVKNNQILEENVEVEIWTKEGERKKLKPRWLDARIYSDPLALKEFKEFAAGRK

SMILES	IC50
CCN1CCN(c2ccc(NS(=O)(=O)c3ccc(Cl)cc3C(=O)O)cc2)CC1	> 99.5 µM
COc1ccc(F)cc1-c1ccc(S(=O)(=O)Nc2ccc(Cl)cc2C(=O)O)cc1	11.7 µM
CCn1c(=O)c(N2C[C@H]3CCC[C@H]2C3)nc2ccccc21	> 99.5 µM
O=C(O)c1cc(Cl)ccc1S(=O)(=O)Nc1ccc(N2CCCCC2)c(Cl)c1	71.6 µM
O=C(O)c1cc(Cl)ccc1S(=O)(=O)NC1CCN(c2ccc(C(F)(F)F)cn2)CC1	> 99.5 µM
O=C(O)c1cc(F)c(F)c(F)c1NS(=O)(=O)c1ccc(Oc2ccccc2Cl)cc1	24.5 µM
CCC(=O)N1CCc2ccc(NS(=O)(=O)c3ccc(Cl)cc3C(=O)O)cc21	> 99.5 µM
Cc1nn(C)cc1-c1ccc(S(=O)(=O)Nc2ccc(Cl)cc2C(=O)O)cc1	85.4 µM
O=C(Cn1ccnc(N2CC[C@H](CO)C2)c1=O)NCc1nccs1	> 99.5 µM
CCn1ccnc(N2C[C@H](c3c[nH]c4ccccc34)[C@H](N3C(=O)c4ccccc4C3=O)C2)c1=O	> 99.5 µM
O=C(Nc1ccc(NS(=O)(=O)c2ccc(Cl)cc2C(=O)O)cc1)c1ccccc1	> 99.5 µM
CC(C)Oc1ccccc1C(=O)N[C@H](C(=O)Nc1cccc(CN)c1)c1ccc(OCc2ccccc2)cc1	74.2 µM
COc1ccc(N2CCC(NS(=O)(=O)c3ccc(Cl)cc3C(=O)O)CC2)cc1	> 99.5 µM
O=C(O)c1cc(Cl)ccc1S(=O)(=O)N[C@H]1CC[C@@H](Oc2ccccc2)CC1	> 99.5 µM
NCc1cccc(NC(=O)[C@H](NS(=O)(=O)CC2CCC2)c2ccc(OCc3ccccc3)cc2)c1	> 99.5 µM
COc1ccc(NS(=O)(=O)c2ccc(Cl)cc2C(=O)O)cc1-n1nnnc1C	> 99.5 µM
NCc1cccc(NC(=O)[C@H](NC(=O)Cc2ccccc2)c2ccc(OCc3ccccc3)cc2)c1	32.8 µM and 32.1 µM
NCc1cccc(NC(=O)[C@H](NC(=O)OCc2ccccc2)c2ccc(Br)cc2F)c1	66 µM
Cn1ccnc(N2CCC(NS(=O)(=O)c3ccc(Cl)cc3C(=O)O)CC2)c1=O	> 99.5 µM
NCc1cccc(CNC(=O)c2cc(Cl)cc(NC(=O)OCc3ccccc3)c2)c1	> 99.5 µM
NCc1cccc(NC(=O)[C@H](NC(=O)OCc2ccccc2)c2cccc(-c3ccc(S(N)(=O)=O)cc3)c2)c1	> 99.5 µM
Cn1cc(-c2cccc([C@H](NC(=O)OCc3ccccc3)C(=O)Nc3cccc(CN)c3)c2)cn1	> 99.5 µM
COCc1cc(Cl)ccc1NS(=O)(=O)c1ccc(Oc2ccccc2Cl)cc1	> 99.5 µM
CCN(C(=O)Cn1ccnc(N2CC[C@H](CO)C2)c1=O)C(C)C	> 99.5 µM
NCc1cccc(NC(=O)c2cc(NC(=O)OCc3ccccc3)c(=O)n3c2CCCC3)c1	> 99.5 µM

SMILES	IC50
COc1ncccc1-c1cccc([C@H](NC(=O)OCc2ccccc2)C(=O)Nc2cccc(CN)c2)c1	> 99.5 µM
O=C(O)c1cc(Cl)ccc1S(=O)(=O)Nc1ccc(CCN2CCCC2)cc1	> 99.5 µM
Cc1cc(N2CCCCC2)ccc1NS(=O)(=O)c1ccc(Cl)cc1C(=O)O	> 99.5 µM
NCc1cccc(NC(=O)[C@H](NC(=O)c2ccns2)c2ccc(OCc3ccccc3)cc2)c1	> 99.5 µM
CCn1c(=O)c(N2CC[C@H](c3nccn3C)C2)nc2ccccc21	> 99.5 µM
Cc1nccn1-c1ccc(NS(=O)(=O)c2ccc(Cl)cc2C(=O)O)cc1F	> 99.5 µM
O=C(O)c1cc(Cl)ccc1NS(=O)(=O)c1ccc(-c2ccccc2F)cc1	10.1 µM
O=C(O)c1cc(Cl)ccc1S(=O)(=O)Nc1ccc(N2CCCS2(=O)=O)cc1	> 99.5 µM
Cc1cc(N2CCC(NS(=O)(=O)c3ccc(Cl)cc3C(=O)O)CC2)nc(C)n1	> 99.5 µM
CCOc1cccc(-c2ccc(S(=O)(=O)Nc3ccc(Cl)cc3C(=O)O)cc2)c1	4.25 µM and 6.13 µM
NCC1(NC(=O)[C@H](NC(=O)OCc2ccccc2)c2ccc(OCc3ccccc3)cc2)CCCCC1	> 99.5 µM
Cn1ccnc1C(=O)N[C@H](C(=O)Nc1cccc(CN)c1)c1ccc(OCc2ccccc2)cc1	> 99.5 µM
CCn1c(=O)c(N2C[C@H]3C[C@H]2CS(=O)(=O)C3)nc2ccccc21	> 99.5 µM
CS(=O)(=O)c1ccc(-c2ccc(S(=O)(=O)Nc3ccc(Cl)cc3C(=O)O)cc2)cc1	33.5 µM
NCc1cccc(NC(=O)[C@H](NC(=O)OCc2ccccc2)c2cccc(-c3cncc(F)c3)c2)c1	> 99.5 µM
CCn1c(=O)c(N2CC[C@H]3[C@H]2[C@H]3C(F)(F)F)nc2ccccc21	> 99.5 µM
CS(=O)(=O)c1ccc(-c2cccc([C@H](NC(=O)OCc3ccccc3)C(=O)Nc3cccc(CN)c3)c2)cc1	40 µM
CCC(C)(C)C(=O)N[C@H](C(=O)Nc1cccc(CN)c1)c1ccc(OCc2ccccc2)cc1	> 99.5 µM
O=C(O)c1cc(Cl)ccc1NS(=O)(=O)c1ccc(-c2cccnc2)cc1	91.3 µM
CCn1c(=O)c(N2CC[C@]3(CCNC3=O)C2)nc2ccccc21	> 99.5 µM
O=C(O)c1cc(Cl)ccc1S(=O)(=O)NC1CCC(N2CCCCC2=O)CC1 (stereo not drawn)	> 99.5 µM
O=C(O)c1cc(Cl)ccc1S(=O)(=O)Nc1ccc(Oc2ccccn2)cc1	> 99.5 µM
Cc1ccc(C(=O)N[C@H](C(=O)Nc2cccc(CN)c2)c2ccc(OCc3ccccc3)cc2)s1	97.7 µM
CS(=O)(=O)c1cncc(-c2cccc([C@H](NC(=O)OCc3ccccc3)C(=O)Nc3cccc(CN)c3)c2)c1	71.4 µM
CCN1C[C@H]2C[C@@H]1CN2c1nc2ccccc2n(CC)c1=O	> 99.5 µM

SMILES	IC50
Cc1cc(OCc2ccccc2)ccc1NS(=O)(=O)c1ccc(Cl)cc1C(=O)O	27.1 µM
CCn1c(=O)c(N2CCC[C@@H]2c2cncn2C)nc2ccccc21	> 99.5 µM
CC(C)(C)OC(=O)NCc1cccc(NC(=O)[C@H](NC(=O)OCc2ccccc2)C2CCNCC2)c1	> 99.5 µM
N#Cc1ccccc1-c1ccc(S(=O)(=O)Nc2ccc(Cl)cc2C(=O)O)cc1	25.1 µM
CCn1c(=O)c(N2CCC[C@H]2C(=O)NC2CC2)nc2ccccc21	> 99.5 µM
NCc1cccc(NC(=O)[C@H](NC(=O)OCc2ccccc2)c2cccc(C3=CCCOC3)c2)c1	> 99.5 µM
CC(C)[C@@H]1[C@H](C(=O)Nc2cccc(CN)c2)CCN1C(=O)OCc1ccccc1	> 99.5 µM
NCc1cccc(NC(=O)[C@H](NC(=O)C2CCCCC2)c2ccc(OCc3ccccc3)cc2)c1	17.6 µM and 20.7 µM and 12.3 µM
Cn1ncc2cc(C(=O)N3CCC(NC(=O)[C@]4(C)CCC[C@H]4O)CC3)cc(O)c21	> 99.5 µM
NCc1cccc(NC(=O)[C@H](NC(=O)[C@H]2CCOC2)c2ccc(OCc3ccccc3)cc2)c1	> 99.5 µM
O=C(O)c1cc(Cl)ccc1S(=O)(=O)Nc1ccc(N2CCCCCC2)cc1	55.2 µM
COc1ccc(NS(=O)(=O)c2ccc(Cl)cc2C(=O)O)cc1OC1CCCC1	> 99.5 µM
O=C(O)c1cc(Cl)ccc1NS(=O)(=O)c1ccc(-c2cn[nH]c2)cc1	> 99.5 µM
C[C@]1(C(=O)N[C@H](C(=O)Nc2cccc(CN)c2)c2ccc(OCc3ccccc3)cc2)COc2ccccc2O1	52.3 µM
CCOc1cc(N2CCN(C)CC2)ccc1NS(=O)(=O)c1ccc(Cl)cc1C(=O)O	> 99.5 µM
CCn1c(=O)c(N2CC[C@]3(CNC(=O)O3)C2)nc2ccccc21	> 99.5 µM
CCn1c(=O)c(N2C[C@H]3CCS(=O)(=O)[C@H]3C2)nc2ccccc21	> 99.5 µM
NCc1cccc(NC(=O)[C@H](NC(=O)c2ccncc2)c2ccc(OCc3ccccc3)cc2)c1	> 99.5 µM
NCc1ccc(NC(=O)c2cc(Cl)cc(NC(=O)OCc3ccccc3)c2)cc1	51.5 µM
O=C(O)c1cc(Cl)ccc1S(=O)(=O)NC1CCN(S(=O)(=O)c2ccc(I)cc2)CC1	81.7 µM
O=C(O)c1cc(Cl)ccc1S(=O)(=O)Nc1ccc(-c2cccc(F)c2)cc1	27 µM
CC(=O)Nc1cccc(-c2ccc(S(=O)(=O)Nc3ccc(Cl)cc3C(=O)O)cc2)c1	23.9 µM
NCc1cccc(N(C(=O)CNC(=O)OCc2ccccc2)c2ccc(OCc3ccccc3)cc2)c1	> 99.5 µM
CCN1C(=O)CCc2cc(NS(=O)(=O)c3ccc(Cl)cc3C(=O)O)ccc21	> 99.5 µM
O=C(O)c1cc(Cl)ccc1S(=O)(=O)NC1CCN(Cc2ccccn2)CC1	> 99.5 µM

SMILES	IC50
CCn1c(=O)c(N2C[C@H](C)C[C@H]2c2ccccc2)nc2ccccc21	> 99.5 µM
CCn1c(=O)c(N2C[C@@H]3C[C@]3(CO)C2)nc2ccccc21	> 99.5 µM
CCn1c(=O)c(N2C[C@]3(CO)C[C@H]2CO3)nc2ccccc21	> 99.5 µM
COc1ccccc1-c1ccc(S(=O)(=O)Nc2ccc(Cl)cc2C(=O)O)cc1	12.8 µM
CC1(NS(=O)(=O)c2ccc(Cl)cc2C(=O)O)CCN(c2ccccc2)CC1	> 99.5 µM
CCOCC(=O)N[C@H](C(=O)Nc1cccc(CN)c1)c1ccc(OCc2ccccc2)cc1	> 99.5 µM
CCn1c(=O)c(N2CCC[C@@H]2Cn2cncn2)nc2ccccc21	> 99.5 µM
CCn1c(=O)c(N2CC[C@H](c3nncs3)C2)nc2ccccc21	> 99.5 µM
NC[C@H]1C[C@@H](NC(=O)c2cc(Cl)ccc2NS(=O)(=O)c2ccc(Oc3ccccc3Cl)cc2)C1	> 99.5 µM
NCc1cccc(NC(=O)[C@H](NC(=O)OCc2ccccc2)C2CCC(c3ccccc3)CC2)c1 (stereo partly drawn)	6.26 µM and 5.78 µM
Cc1cc(C)n(-c2ccc(NS(=O)(=O)c3ccc(Cl)cc3C(=O)O)cc2)n1	> 99.5 µM
O=C(O)c1cc(Cl)ccc1S(=O)(=O)N[C@H]1CCN(Cc2ccccc2)C(=O)C1	> 99.5 µM
O=C(O)c1cc(Cl)ccc1S(=O)(=O)N[C@H]1CC[C@H]2CN(Cc3ccccc3)C[C@H]2C1	> 99.5 µM
Cc1ncc(COc2ccc([C@H](NC(=O)OCc3ccccc3)C(=O)Nc3cccc(CN)c3)cc2)cn1	> 99.5 µM
CCCCN1Cc2ccc(NS(=O)(=O)c3ccc(Cl)cc3C(=O)O)cc2C1	> 99.5 µM
CCn1c(=O)c(N2CC3(COC3)[C@](F)(CO)C2)nc2ccccc21	> 99.5 µM
NCc1cccc(NC(=O)c2cc(Cl)ccc2NS(=O)(=O)c2ccc(Oc3ccccc3Cl)cc2)c1	> 99.5 µM
CCn1c(=O)c(N2C[C@H]3C[C@H]2C(F)(F)C3)nc2ccccc21	> 99.5 µM
CCn1c(=O)c(N2CC[C@]3(CCSC3)C2)nc2ccccc21	> 99.5 µM
NS(=O)(=O)c1cccc(-c2ccc(S(=O)(=O)Nc3ccc(Cl)cc3C(=O)O)cc2)c1	30.6 µM
CCn1c(=O)c(N2CCC[C@@H]2Cc2cccs2)nc2ccccc21	> 99.5 µM
CC(=O)N1CCN([C@H]2CC[C@H](NS(=O)(=O)c3ccc(Cl)cc3C(=O)O)CC2)CC1	> 99.5 µM
CCC1CN(C(=O)c2cc(Cl)ccc2NS(=O)(=O)c2ccc(Oc3ccccc3Cl)cc2)C1	> 99.5 µM
